Read-outs that look alike come from different tables or passages of the source.
Legend:
[1] = system: MIA-induced static allodynia (rats); assay: Monosodium iodoacetate (MIA)-induced static allodynia; format: in vivo, rat
[2] = system: Capsaicin-induced hyperalgesia; assay: Capsaicin-induced hyperalgesia, static and dynamic allodynia endpoint; format: in vivo, rat
[3] = target: T1, human Dopamine D3 receptor (Homo sapiens, UniProt P35462); assay: Inhibition via dopamine D3 receptors of forskolin-stimulated adenylate cyclase activity (cAMP, hD3CHO cells); format: cell-based; conditions: for functional selectivity for D3 over D2: D2 EC50 divided by D3 EC50, 10000 used where D2 EC50 >10000
T1 construct: expressed in transfected cells; host or cells: CHO (dihydrofolate reductase deficient), generated in house
T1 sequence (P35462 whole entry): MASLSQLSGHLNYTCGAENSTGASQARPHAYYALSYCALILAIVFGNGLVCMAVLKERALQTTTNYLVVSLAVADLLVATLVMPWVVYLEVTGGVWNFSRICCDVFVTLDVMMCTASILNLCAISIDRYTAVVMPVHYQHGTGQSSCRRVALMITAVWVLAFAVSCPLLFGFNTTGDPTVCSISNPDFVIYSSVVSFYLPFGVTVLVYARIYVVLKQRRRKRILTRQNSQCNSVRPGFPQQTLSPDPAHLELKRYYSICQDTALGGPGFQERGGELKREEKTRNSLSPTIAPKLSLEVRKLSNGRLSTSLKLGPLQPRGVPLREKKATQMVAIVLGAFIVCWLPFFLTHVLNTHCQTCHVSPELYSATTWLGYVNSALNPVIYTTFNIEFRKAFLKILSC

[4] = target: T2, D4 dopamine receptor (Homo sapiens, UniProt P21917); assay: In vitro binding (membrane preparation), human recombinant receptors, D4
T2 construct: expressed in transfected cells
T2 sequence (P21917 1-419): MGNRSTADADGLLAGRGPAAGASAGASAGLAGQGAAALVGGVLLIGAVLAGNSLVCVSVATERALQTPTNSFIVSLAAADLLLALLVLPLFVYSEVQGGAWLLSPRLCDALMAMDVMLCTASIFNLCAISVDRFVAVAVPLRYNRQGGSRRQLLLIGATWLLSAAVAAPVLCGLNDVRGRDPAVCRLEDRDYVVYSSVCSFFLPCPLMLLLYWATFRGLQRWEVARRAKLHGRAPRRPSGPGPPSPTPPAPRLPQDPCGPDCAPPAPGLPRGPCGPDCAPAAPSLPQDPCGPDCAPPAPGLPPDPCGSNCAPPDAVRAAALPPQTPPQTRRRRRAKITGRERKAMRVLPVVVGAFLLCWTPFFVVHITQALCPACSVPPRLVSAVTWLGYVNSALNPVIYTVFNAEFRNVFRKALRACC

[5] = target: D5 (Homo sapiens, UniProt P21918); assay: In vitro binding (membrane preparation), human recombinant receptors, D5
Chain of D5 (P21918 whole entry): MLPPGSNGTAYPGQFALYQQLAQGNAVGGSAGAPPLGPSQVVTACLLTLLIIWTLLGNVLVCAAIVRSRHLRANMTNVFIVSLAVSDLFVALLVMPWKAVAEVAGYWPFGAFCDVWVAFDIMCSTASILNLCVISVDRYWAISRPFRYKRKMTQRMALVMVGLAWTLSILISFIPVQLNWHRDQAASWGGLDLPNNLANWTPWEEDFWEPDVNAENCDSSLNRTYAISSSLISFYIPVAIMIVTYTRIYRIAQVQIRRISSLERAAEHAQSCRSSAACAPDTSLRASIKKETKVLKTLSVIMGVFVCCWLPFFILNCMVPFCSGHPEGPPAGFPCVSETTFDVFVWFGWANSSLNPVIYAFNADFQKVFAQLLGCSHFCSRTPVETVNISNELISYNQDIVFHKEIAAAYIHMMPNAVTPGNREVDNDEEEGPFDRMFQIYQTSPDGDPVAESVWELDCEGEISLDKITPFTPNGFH

[6] = system: Hotplate paw withdrawal latency (rats); assay: Hotplate paw withdrawal latency; format: in vivo, rat
[7] = system: MIA-induced weight deficit (rats); assay: MIA-induced weight-bearing deficit; format: in vivo, rat
[8] = system: Plantar surgery-induced static and dynamic allodynia (rats); assay: Plantar surgery model of postsurgical pain, static and dynamic allodynia; format: in vivo, rat
[9] = system: CCI-induced static and dynamic allodynia (rats); assay: Chronic constriction injury (CCI) of sciatic nerve, static and dynamic allodynia; format: in vivo, rat
[10] = target: D3 dopamine receptor (Homo sapiens, UniProt P35462); assay: In vitro binding (membrane preparation), human recombinant receptors, D3
Chain of D3 dopamine receptor (P35462 whole entry): as the sequence (P35462 whole entry) above

[11] = target: T3, human dopamine D2long receptor (Homo sapiens, UniProt P14416); assay: Inhibition via dopamine D2 receptors of forskolin-stimulated adenylate cyclase activity (cAMP, GH4C1/hD2L cells); format: cell-based
T3 construct: expressed in transfected cells; host or cells: GH4C1 rat pituitary cells
T3 sequence (P14416 whole entry): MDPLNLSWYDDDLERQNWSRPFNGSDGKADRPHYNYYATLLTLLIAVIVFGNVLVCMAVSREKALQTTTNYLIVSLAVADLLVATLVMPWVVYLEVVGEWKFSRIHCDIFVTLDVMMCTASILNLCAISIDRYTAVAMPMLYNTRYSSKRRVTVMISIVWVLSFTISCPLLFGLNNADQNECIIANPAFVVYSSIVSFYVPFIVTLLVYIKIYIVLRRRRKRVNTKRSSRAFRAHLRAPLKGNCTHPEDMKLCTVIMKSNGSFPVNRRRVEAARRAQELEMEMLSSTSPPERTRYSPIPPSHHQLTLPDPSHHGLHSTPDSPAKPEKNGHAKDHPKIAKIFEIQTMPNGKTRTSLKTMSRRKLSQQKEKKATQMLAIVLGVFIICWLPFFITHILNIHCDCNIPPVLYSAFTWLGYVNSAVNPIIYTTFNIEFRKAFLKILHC

[12] = target: T2, D4 dopamine receptor; assay: Functional inhibition of forskolin-stimulated cAMP accumulation in human recombinant cell lines, D4; format: cell-based
[13] = target: D1 (Homo sapiens, UniProt P21728); assay: In vitro binding (membrane preparation), human recombinant receptors, D1
Chain of D1 (P21728 whole entry): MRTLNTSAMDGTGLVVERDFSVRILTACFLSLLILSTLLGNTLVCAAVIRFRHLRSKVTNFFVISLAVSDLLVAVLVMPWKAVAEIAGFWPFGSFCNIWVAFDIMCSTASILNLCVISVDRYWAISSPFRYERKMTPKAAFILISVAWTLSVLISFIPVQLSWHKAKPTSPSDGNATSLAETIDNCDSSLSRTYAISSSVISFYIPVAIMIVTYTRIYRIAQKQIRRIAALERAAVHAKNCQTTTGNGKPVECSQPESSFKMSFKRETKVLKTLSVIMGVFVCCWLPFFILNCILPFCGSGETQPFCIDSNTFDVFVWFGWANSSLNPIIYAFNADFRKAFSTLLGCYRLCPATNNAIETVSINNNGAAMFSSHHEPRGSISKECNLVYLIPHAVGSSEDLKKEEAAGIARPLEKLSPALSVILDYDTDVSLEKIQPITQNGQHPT

[14] = target: D2 dopamine receptor (Homo sapiens, UniProt P14416); assay: In vitro binding (membrane preparation), human recombinant receptors, D2
Chain of D2 dopamine receptor (P14416 whole entry): as the sequence (P14416 whole entry) above

[15] = Free plasma concentration after oral dosing in pain model rats; conditions: for peak free-plasma concentration / predicted free-plasma exposure: based on the known PK profile, 0.1 mg/kg

## N#Cc1ccc2c(c1)CCN(CCC1CCC(NC(=O)c3ccnc4ccccc34)CC1)C2 (stereo not drawn) [quinoline-4-carboxylic acid (4-[2-(6-cyano-3,4-dihydro-1H-isoquinolin-2-yl)ethyl]cyclohexyl)-amide, reference compound]
[1]; antagonist oral 3 mg/kg
  effect of 0.1 mg/kg of the compound of Example 67 on MIA allodynia after D3 antagonist: abolished

## CC(C)C[C@H](CN)CC(=O)O [pregabalin, reference compound]
[2]; rat, 30 mg/kg
  effect in capsaicin model, positive control compared with Example 67 at 1 mg/kg: equivalent in magnitude

## CCCN1CCO[C@H](c2cccc(O)c2)C1.Cl [Example 8, R-(−)-3-(4-Propylmorpholin-2-yl)phenol hydrochloride]
[3]
  EC50: 0.0076 µM
  functional selectivity for D3 over D2: 1315.8 fold

## COc1cccc(C2(O)CCCCC2CN(C)C)c1 (stereo not drawn) [tramadol, reference compound]
[1]; 100 mg/kg
  reversal of MIA-induced static allodynia, positive control: full reversal

## CCCN1C[C@@H](c2ccc(N)nc2)OC[C@@H]1C [Example 67, 5-[(2R,5S)-5-methyl-4-propylmorpholin-2-yl]pyridin-2-amine]
[1]; oral
  Minimum Effective Dose, MIA-induced static allodynia: 0.01 mg/kg
[1]; oral 0.1 mg/kg
  reversal of MIA-induced static allodynia: full reversal
[1]; oral 0.01, 0.03 and 0.1 mg/kg
  reversal of MIA-induced static allodynia: dose response in reversal of the allodynia
[4]
  Ki: 4.16 µM
[2]; oral
  Minimum Effective Dose, capsaicin-induced hyperalgesia: 0.01 mg/kg oral
[2]; rat, oral pre-dosing
  dose giving optimal effect in capsaicin model: 1 mg/kg
[2]; rat, oral pre-dosing 0.01, 0.1 and 1 mg/kg, capsaicin 1 hour after dosing
  effect on capsaicin-induced static and dynamic allodynia: dose response
[5]
  IC50: > 10 µM
[6]; rat, oral 0.01, 0.03, 0.1 and 1.0 mg/kg, hotplate 52° C.
  efficacy in hotplate model (paw withdrawal latency): no efficacy
[6]; rats, oral
  Minimum Effective Dose, hotplate paw withdrawal latency: No effect up to 1.0 mg/kg oral
[7]; oral, single-dose study
  Minimum Effective Dose, MIA-induced weight deficit: 0.1 mg/kg oral single-dose study
[7]; single dose 0.1 mg/kg
  efficacy on weight-bearing deficit following MIA injection: efficacy similar to optimal opioid treatment
[8]
  oral dose giving maximal effect on surgery-induced allodynia: 0.1 mg/kg
[8]; oral
  reversal of surgery-induced static and dynamic allodynia: dose-dependent reversal
[9]; oral
  Minimum Effective Dose, CCI-induced static and dynamic allodynia: No effect up to 0.1 mg/kg oral
[9]; oral 0.1 mg/kg
  effect on CCI-induced static and dynamic allodynia: no effects
[3]
  functional selectivity for D3 over D2: > 470 fold
[3]; D3, CHO cells, full agonist, normalised to pramipexole, read-out: % Emax
  Emax: 95%
[3]; D3 versus D4, cAMP
  functional selectivity over D4 dopamine receptor: 180 fold
[3]; forskolin-stimulated cAMP accumulation, (95% CI), read-out: % Emax, D3
  Emax: 95%
[10]
  Ki: 0.215 µM
[10]; D3 versus D2 binding
  binding selectivity over D2 dopamine receptor: > 46 fold
[11]
  EC50: > 10 µM
[11]; 10 μM, response as percentage of the effect to pramipexole, (95% CI)
  % Response @ 10 μM, D2: % Response @ 10 μM = 36 (19-56)
[12]
  EC50: 3.9 µM
[12]; forskolin-stimulated cAMP accumulation, (95% CI)
  Emax: 92%
[13]
  IC50: > 10 µM
[14]
  IC50: > 10 µM
[15]; oral 0.1 mg/kg
  peak free-plasma concentration / predicted free-plasma exposure: 10 nM
[15]; oral 0.1 mg/kg, listed as 5-[(2R,5S)-5-methyl-4-propylmorpholin-2-yl]pyridin-2-amine
  peak free-plasma concentration / predicted free-plasma exposure: approximately 10 nM
[15]; rats, 0.01 mg/kg oral
  measured mean free Cmax for MED, MIA-induced static allodynia: 1.85 nM
[15]; rats, oral 0.01 mg/kg
  free plasma concentration: 1.85 nM
[15]; rats, oral 0.03 mg/kg
  free plasma concentration: 5.70 nM
[15]; rats, oral 0.1 mg/kg
  free plasma concentration: 10.77 nM

Reference: US20090318451A1, “[…] AGONISTS FOR THE TREATMENT OF PAIN” (Pfizer Inc., priority 2007, published 2009)
